Patent US10888549B2, “Pharmaceutical agents targeting cancer stem cells” (THE JOHNS HOPKINS UNIVERSITY, priority 2016, dated 2021)

Columns and labels:
MIRLET7BHG promoter = assay: Bisulfite sequencing of let-7 host gene promoter; type: cell-based, human; details: bladder cancer cells
Description: Cell pellets were digested with 1% sodium dodecyl sulfate and 50 μg/mL proteinase K (Roche, Nutley, USA) at 48° C. overnight. Isolation of genomic DNA from cell lines was performed with the phenol-chloroform extraction protocol followed by ethanol precipitation. Bisulfite treatment was conducted using an EpiTect Bisulfite Kit (QIAGEN, Valencia, USA), and was subsequently amplified via PCR using primers as shown in the following table. PCR products were purified using the QIAquick Gel Extraction kit (Qiagen), and sequenced by Genewiz DNA sequencing service (Genewiz, South Plainfield, USA). The data were analyzed using the Sequence Scanner v1.0 software (Life technologies). A methylation frequency of ≥50% of total CpG sites within the amplified region was considered “methylation-positive”. For demethylation, cells (1×10^6/T-75 flask) were treated with […] of the demethylating agent 5-Aza-dC (Sigma) dissolved in 50% acetic acid or were mock-treated with phosphate buffered saline (PBS) including the same amount of acetic acid every 24 hours for 5 days. When combined with the histone deacetylase inhibitor TSA (Sigma), 300 nmol/L TSA was added to the medium for the final 24 hours.

let-7 = let-7 expression by Q-RT-PCR; type: cell-based, human; details: parental or spheroid bladder cancer cells
Description: Total RNA from cell lines was isolated using the RNeasy Plus Mini kit (Qiagen, Valencia, USA) according to the manufacturer's protocol. Total RNA extraction from bladder tissue was performed with the QIAzol Lysis Reagent (Qiagen) followed by phenol extraction and ethanol precipitation. Total RNA was eluted in DEPC treated water and stored at -80° C. Total RNA extraction from urine was performed using the […] Isolation Kit (Ambion, Austin, USA). These total RNA were converted to cDNA using the SuperScript III First-Strand Synthesis System (Life technologies, Carlsbad, USA), which was then used as a template for Q-RT-PCR. Q-RT-PCR was performed using the Fast SYBR Green Master Mix (Thermo Fisher Scientific, Waltham, USA) on a 7900HT Fast Real-Time PCR System (Life technologies) in triplicate. Micro RNA (miRNA) extraction was performed using the […] Isolation Kit, and was reverse transcribed using TaqMan reverse transcription kit (Applied Biosystems, Foster City, USA) and miRNA-specific RT primers provided with TaqMan microRNA assays (Applied Biosystems). Q-RT-PCR for miRNAs was performed using the TaqMan Universal PCR Master Mix according to the manufacturer's protocol. SDS software (Applied Biosystems) was used to determine cycle threshold (Ct) values. Expression level was quantified relative to β-actin for mRNA and RNU6B for miRNA using the 2-ΔΔCt method (12).

urothelial CSCs = assay: Sphere formation assay (CSC properties); type: cell-based, human; details: for sphere formation / sphere-forming ability: agent alone, bladder cancer cells
Description: Sphere formation was induced by culturing cells (2×10^4/well) in DMEM/Ham's F12 50/50 Mix (Mediatech) supplemented with B-27 (Life Technologies), 20 ng/mL FGF-basic (Peprotech), 20 ng/mL EGF (Peprotech). Cell culture was performed in ultra-low attachment 6 well plates (Corning, Lowell, USA) for 10 days. The medium was replaced every other day. Sphere formation was evaluated using the inverted phase-contrast microscope, and single sphere with a diameter larger than 100 μm was counted using NIS-Elements Microscope Imaging Software. To redifferentiate spheres, spheres were plated in standard growth medium with 10% FBS in dishes supporting cell attachment, and incubated for 7 days. For self-renewal assay, primary spheres were collected by gentle centrifugation (5 min at 400×g), dissociated with Stempro Accutase Cell Dissociation Reagent (Life Technologies), and mechanically disrupted with a pipette. The cell suspension was sieved through 40 μm cell strainer cap filter to achieve a single-cell suspension, and then equal numbers of alive cells were plated in ultralow attachment plates to generate the second spheres. Again, spheres were counted on day 14 and digested to generate the third Spheres. All the experiments were performed in triplicate and repeated at least three times.

SOX2 = SOX2 expression by western blotting / flow cytometry; type: cell-based, human
Description: (§1) Whole cell lysates were extracted using RIPA buffer (Thermo Scientific) supplemented with 10 μL/mL Halt™ Protease Inhibitor Cocktail Kit (Life Technologies) and 30 μL/mL Halt™ Phosphatase Inhibitor Cocktail Kit (Life Technologies). The protein concentrations were determined using a Pierce™ BCA Protein Assay Kit (Life Technologies), and the protein were separated on NuPAGE® 4-12% Bis-Tris Gel (Life Technologies) according to the manufacturer's protocol. COX2 (D5H5), NANOG (D73G4), OCT4 (D7O5Z), CD133 (A3G6K), Snail (C15D3), ZEB1 (D80D3), Vimentin (D21H3), CDH2 (D4R1H), CDH1 (24E10), p-EGFR (D7A5), EGFR (D38B1), p-AKT (D9E), AKT (cat #, 9272), p-ERK (D13.14.4E), ERK (137F5), p-YAP1 (D9W2I), p-Src (cat #, 2101), Src (36D10), DNMT1 (D63A6), DNMT3A (D23G1), and DNMT3B (D7O7O) antibodies were obtained from Cell Signaling Technology (Danvers, Mass., USA), except for SOX2 (EPR3131; Abcam, Cambridge, USA), YAP1 (ab52771; Abcam), CD24 (cat #, AF5247-SP; R&D Systems, Minneapolis USA) and β-actin (A2228; Sigma-Aldrich). Secondary horseradish peroxidase (HRP)-conjugated antibodies were obtained from Cell Signaling Technology, and chemiluminescent detection of HRP-labeled antibodies was performed using Amersham ECL Prime Western Blotting Detection Reagent (GE Healthcare, Piscataway, USA). As loading control, β-actin was used.
For extracellular staining, cells (1×10^6/100 μL stain buffer) were incubated with PE-Vio770-conjugated anti-human CD133 (293C3; Miltenyi Biotec, Auburn, USA) or PE-conjugated anti-human CD24 antibody (cat #, 560991; BD Biosciences) for 30 min at 4° C. in dark. PE-Vio770-conjugated Isotype (cat #, 130-098-563; Miltenyi Biotec) and PE-conjugated IgG2a, κ Isotype (cat #, 555574; BD Biosciences) were used as control for CD133 and CD24 staining, respectively. Staining for intracellular SOX2 was carried out using the BD Cytofix/Cytoperm Fixation/Permeabilization Kit (BD Biosciences) according to manufacturer's protocol. The cells were incubated with Alexa Fluor 647-conjugated anti-SOX2 antibody (cat #, 560302; BD Biosciences) for 40 min at 4° C. in dark. Alexa Fluor 647-conjugated anti-IgG2a, κ Isotype (cat #, 558053; BD Biosciences) was used as control. Data were acquired on a BD FACSCalibur flow cytometer (BD Biosciences) using BD CellQuest Pro software (BD Biosciences) and analyzed with FlowJo software v10.1 (Tree Star, Ashland, USA).

DNMT 1 and 3A = assay: Western blotting of DNMTs; type: cell-based, human
Description: as §1

panel of miRNAs = assay: Expression of a panel of miRNAs in BFTC 905 cells; type: cell-based, human
Description: Total RNA from cell lines was isolated using the RNeasy Plus Mini kit (Qiagen, Valencia, USA) according to the manufacturer's protocol. Total RNA extraction from bladder tissue was performed with the QIAzol Lysis Reagent (Qiagen) followed by phenol extraction and ethanol precipitation. Total RNA was eluted in DEPC treated water and stored at −80° C. Total RNA extraction from urine was performed using the MirVana miRNA Isolation Kit (Ambion, Austin, USA). These total RNA were converted to cDNA using the SuperScript III First-Strand Synthesis System (Life technologies, Carlsbad, USA), which was then used as a template for Q-RT-PCR. Q-RT-PCR was performed using the Fast SYBR Green Master Mix (Thermo Fisher Scientific, Waltham, USA) on a 7900HT Fast Real-Time PCR System (Life technologies) in triplicate. Micro RNA (miRNA) extraction was performed using the MirVana miRNA Isolation Kit, and was reverse transcribed using TaqMan reverse transcription kit (Applied Biosystems, Foster City, USA) and miRNA-specific RT primers provided with TaqMan microRNA assays (Applied Biosystems). Q-RT-PCR for miRNAs was performed using the TaqMan Universal PCR Master Mix according to the manufacturer's protocol. SDS software (Applied Biosystems) was used to determine cycle threshold (Ct) values. Expression level was quantified relative to β-actin for mRNA and RNU6B for miRNA using the 2-ΔΔCt method (12).

YAP1 = YAP1 expression by western blotting; type: cell-based, human
Description: as §1

COX2 = COX2 expression by western blotting; type: cell-based, human; details: agent alone; bladder cancer cells
Description: Whole cell lysates were extracted using RIPA buffer (Thermo Scientific) supplemented with 10 μL/mL Halt™ Protease Inhibitor Cocktail Kit (Life Technologies) and 30 μL/mL Halt™ Phosphatase Inhibitor Cocktail Kit (Life Technologies). […] Secondary horseradish peroxidase (HRP)-conjugated antibodies were obtained from Cell Signaling Technology, and chemiluminescent detection of HRP-labeled antibodies was performed using Amersham ECL Prime Western Blotting Detection Reagent (GE Healthcare, Piscataway, USA). As loading control, β-actin was used.

[1] = Body weight of treated mice; type: in vivo; details: mouse, in vivo
Description: For celecoxib and/or VP treatment, celecoxib (5 mg/kg) was administered via intraperitoneal (i.p.) injection once a day (17), and VP (50 mg/kg) was administered via i.p. every other day (18). EP4 antagonist ONO-AE3-208 (10 mg/kg) was administered via i.p. once a day (19). Control was applied with same volume (100 μL per injection) of 10% dimethyl sulphoxide in […] (Sigma-Aldrich). For GEM and CDDP (GC) treatment (i.p.), CDDP (6 mg/kg) was only applied after the first GEM (60 mg/kg) treatment on day 2, followed by three consecutive treatments of GEM on day 5, 8 and 11 (17). The next cycle was started on day 18, and the treatment was continued until tumor reached 2 cm in diameter. For erlotinib treatment, the mice were treated once a day, 6 days per week, by oral gavage with erlotinib (100 mg/kg) or control (PBS containing 0.5% methyl cellulose (Sigma-Aldrich) and 0.1% TWEEN 80) (20). Tumor size was measured at least every three days. […] To establish xenograft model with acquired resistance to erlotinib, erlotinib sensitive 5637 cells were injected subcutaneously into the both flanks of 4-5 week-old NSG mice, and the tumors were consecutively passaged from NSG mice treated with erlotinib and celecoxib until the development of refractory tumors. […]

[2] = agent alone, bladder cancer cells
[3] = PGE2 added to celecoxib-treated cells

With `Nc1ncn([C@H]2C[C@H](O)[C@@H](CO)O2)c(=O)n1` [5-Aza-dC, 5-Aza-2′-deoxycytidine] the “promoter methylation of the let-7 host gene” value (MIRLET7BHG promoter) was “demethylated” and the let-7 expression (let-7) was “restoration”.

For `CC(C(=O)Nc1cc(C#N)ccc1CCCC(=O)O)c1ccc(F)c2ccccc12` (centres unmarked) [EP4-specific antagonist, ONO-AE3-208], the “sphere formation / sphere-forming ability” value (urothelial CSCs) was “dramatic reduction” and the SOX2 expression (SOX2; [2]) was “dramatic reduction”.

In the case of `CCCCC[C@H](O)/C=C/[C@H]1[C@H](O)CC(=O)[C@@H]1C/C=C\CCCC(=O)O` [PGE2, Prostaglandin E2], the “DNMT 1 and 3A expression” value (DNMT 1 and 3A) is reported as “upregulated”, the “expression of several miRNAs” value (panel of miRNAs) is reported as “reduced” and the sphere-forming ability (urothelial CSCs; [3]) is reported as “restored”. The SOX2 expression (SOX2; [3]) was “restored”, the “promoter methylation of the let-7 host gene” value (MIRLET7BHG promoter) was “Promoter methylation of the let-7 host gene was observed” and the let-7 expression (let-7) was “reduced”.

In the case of `CC(C)(C)n1nc(-c2ccc(Cl)cc2)c2c(N)ncnc21` [Src inhibitor, PP2], the YAP1 expression (YAP1; Src inhibitor added to COX2 inhibitor-treated cells) is reported as “downregulated”.

In the case of `C=Cc1c(C)c2cc3nc(cc4[nH]c(cc5nc(cc1[nH]2)C(C)=C5CCC(=O)O)c(CCC(=O)OC)c4C)[C@@]1(C)C3=CC=C(C(=O)OC)[C@H]1C(=O)OC` [VP, 3-[(23S,24R)-14-ethenyl-5-(3-methoxy-3-oxopropyl)-22,23-bis(methoxycarbonyl)-4,10,15,24-tetramethyl-25,26,27,28-tetraazahexacyclo[16.6.1.1^3,6.1^8,11.1^13,16.0^19,24]octacosa-1,3,5,7,9,11(27),12,14,16,18(25),19,21-dodecaen-9-yl]propanoic acid], the SOX2 expression (SOX2; [2]) is reported as “reduced”, the COX2 expression (COX2) is reported as “induced” and the “body weight loss of mice” value [1] is reported as “did not observe body weight loss”.

In the case of `N.N.[Cl][Pt][Cl]` [cisplatin, Cisplatin], the “sphere formation / sphere-forming ability” value (urothelial CSCs) is reported as “increased”, the SOX2 expression (SOX2; [2]) is reported as “overexpression” and the YAP1 expression (YAP1; [2]) is reported as “overexpression”. For the same compound, the COX2 expression (COX2) was “overexpression”.

In the case of `CCc1cccc2c3c([nH]c12)C(CC)(CC(=O)O)OCC3` (centres unmarked) [etodolac, Etodolac], the “sphere formation / sphere-forming ability” value (urothelial CSCs) is reported as “dramatic reduction” and the SOX2 expression (SOX2; [2]) is reported as “dramatic reduction”.
